From paper PMC5937995 (Bioorganic & medicinal chemistry, 2018)
Blank lines part the entries; values can stand above or below the molecule they belong to. Residues, ends and D or L forms follow the SMILES beside them.

Key:
[1] = cited from earlier work
human platelets = details: cited from earlier work; for IC50: read-out: potency in P-selectin assay, human platelets
PAR1 [2] = molecular target: T1, PAR1 (Homo sapiens, UniProt P25116); test: PAR1
T1 sequence (P25116 22-425): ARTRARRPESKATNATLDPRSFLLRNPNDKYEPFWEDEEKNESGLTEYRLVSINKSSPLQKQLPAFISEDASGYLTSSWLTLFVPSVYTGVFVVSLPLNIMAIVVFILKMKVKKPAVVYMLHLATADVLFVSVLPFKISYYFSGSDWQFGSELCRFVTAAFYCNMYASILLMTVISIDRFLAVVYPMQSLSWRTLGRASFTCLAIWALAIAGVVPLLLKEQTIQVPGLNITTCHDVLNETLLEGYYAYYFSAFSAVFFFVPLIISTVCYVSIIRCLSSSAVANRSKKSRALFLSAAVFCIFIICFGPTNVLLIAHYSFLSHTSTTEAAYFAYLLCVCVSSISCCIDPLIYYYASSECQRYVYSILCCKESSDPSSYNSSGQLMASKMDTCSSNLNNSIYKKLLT

cardiac infarct size = details: murine myocardial ischemia-reperfusion injury; cited from earlier work
PAR1 [3] = details: platelet membranes; cited from earlier work
Aqueous solubility = assay type: physicochemical; details: turbid suspensions observed at high concentrations
PAR1 [4] = details: cited from earlier work
[5] = 5 μM TFLLRN-NH2, EA.hy926 cells

Structure (SMILES): CC(C)CC(=O)Nc1cccc(NC(=O)c2ccccc2Br)c1 [CJD-125]
plasma stability relative to ML161 [1]: improved plasma stability
potency relative to ML161 in platelet P-selectin assay (human platelets): equipotency
activity in PAR1 iCa2+ assay (in words) (PAR1 [2]; [5]): less potent than ML161 and did not give a good concentration-response

activity in PAR1 iCa2+ assay (in words) (PAR1 [2]; [5]): only modest activity
Structure (SMILES): CCCC(=O)Nc1cccc(NC(=O)c2ccccc2N=[N+]=[N-])c1 [DG-5, 2-Azido-N-(3-butyramidophenyl)benzamide]

fold less potent than RWJ-58259 (PAR1 [2]; [5]): 15 fold
Structure (SMILES): C#CCCC(=O)NCC[C@H](NC(=O)[C@H](Cc1ccc(F)c(F)c1)NC(=O)Nc1ccc2c(CN3CCCC3)nn(Cc3c(Cl)cccc3Cl)c2c1)C(=O)NCc1ccccc1 [DG-207, N-((S)-4-(Benzylamino)-3-((S)-2-(3-(1-(2,6-dichlorobenzyl)-3-(pyrrolidin-1-ylmethyl)-1H-indazol-6-yl)ureido)-3-(3,4-difluorophenyl)propanamido)-4-oxobutyl)pent-4-ynamide]

activity in PAR1 iCa2+ assay (in words) (PAR1 [2]; [5]): poorly active
Structure (SMILES): CCCCC(=O)Nc1cccc(NC(=O)c2ccccc2Br)c1 [EMG-23, 2-Bromo-N-(3-pentanamidophenyl)benzamide]

Structure (SMILES): CCCC(=O)Nc1cccc(NC(=O)c2ccccc2Br)c1 [ML161]
cardiac infarct size (cardiac infarct size): significantly decreased
mode of inhibition of SFLLRN-NH2 (human platelets; platelet P-selectin assay): non-competitive inhibitor
IC50 (human platelets): 260 nM
inhibition of [3H]TRAP binding (PAR1 [3]): does not significantly inhibit binding
aqueous solubility (Aqueous solubility): low aqueous solubility

activity in PAR1 iCa2+ assay (in words) (PAR1 [2]; [5]): only modest inhibition of PAR1
Structure (SMILES): C#CCCC(=O)Nc1cccc(NC(=O)c2ccccc2Br)c1 [RR-10, 2-Bromo-N-(3-(pent-4-ynamido)phenyl)benzamide]

Structure (SMILES): CCCCNc1cccc(NC(=O)c2ccccc2Br)c1 [RR-90]
IC50 (human platelets): 340 nM

Structure (SMILES): NCC[C@H](NC(=O)[C@H](Cc1ccc(F)c(F)c1)NC(=O)Nc1ccc2c(CN3CCCC3)cn(Cc3c(Cl)cccc3Cl)c2c1)C(=O)NCc1ccccc1 [RWJ-56110]
mode of inhibition of radiolabeled PAR1 activating peptide binding (PAR1 [4]): competitive inhibitor

EC50 (PAR1 [2]): 4800 nM
Structure (SMILES): CC(C)C[C@H](NC(=O)[C@H](CC(C)C)NC(=O)[C@H](Cc1ccccc1)NC(=O)[C@@H](N)[C@@H](C)O)C(=O)N[C@@H](CCCNC(=N)N)C(=O)N[C@@H](CC(N)=O)C(N)=O [TFLLRN-NH2, reference compound] (H-TFLLRN-NH2)

IC50 (PAR1 [2]): 32 nM
% Inhibition (PAR1 [2]; in presence of 5 μM TFLLRN-NH2, EA.hy926 cells): 95%
aqueous solubility (Aqueous solubility): low aqueous solubility
Structure (SMILES): CCOC(=O)N[C@@H]1CC[C@@H]2[C@@H](C1)C[C@H]1C(=O)O[C@H](C)[C@H]1[C@H]2/C=C/c1ccc(-c2cccc(F)c2)cn1 [Vorapaxar, reference compound]
